In general, pKi refers to −log10 of the Ki, conventionally taken in molar units. Higher therefore signals a low Ki.

pKi: −log10 of the molar value. Where a name gives a salt, the structure may show the parent alone. Where only a bound is given, the exact number is not on record here.

The results in this text go back to US9108951B2, “Substituted 5,6,7,8-tetrahydro-1,6-naphthyridines as factor XIa inhibitors” (BRISTOL-MYERS SQUIBB COMPANY, priority 2011, dated 2015).

The target in the test is purified human Factor XIa (Homo sapiens (Human), UniProt P03951). Briefly: Factor XIa assay (chromogenic substrate hydrolysis, Ki). Conditions: synthetic substrate S-2366, 50 mM HEPES pH 7.4. It is filed as biochemical. As for the experimental part: The effectiveness of compounds of the present invention as inhibitors of the coagulation factors XIa, VIIa, IXa, Xa, XIIa, plasma kallikrein or thrombin, can be determined using a relevant purified serine protease, respectively, and an appropriate synthetic substrate. The rate of hydrolysis of the chromogenic or fluorogenic substrate by the relevant serine protease was measured both in the absence and presence of compounds of the present invention. […] A decrease in the rate of absorbance or fluorescence change in the presence of inhibitor is indicative of enzyme inhibition. Such methods are known to one skilled in the art. The results of this assay are expressed as the inhibitory constant, Ki.
Chain of purified human Factor XIa (P03951 388-625): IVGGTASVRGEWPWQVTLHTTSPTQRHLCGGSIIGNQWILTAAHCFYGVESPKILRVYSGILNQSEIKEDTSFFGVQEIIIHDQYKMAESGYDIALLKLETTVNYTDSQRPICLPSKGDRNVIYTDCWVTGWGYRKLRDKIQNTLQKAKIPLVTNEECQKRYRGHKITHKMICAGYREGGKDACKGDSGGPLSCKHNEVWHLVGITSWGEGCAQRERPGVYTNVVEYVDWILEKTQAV
Chain of purified human Factor XIa (P03951 19-387 partner): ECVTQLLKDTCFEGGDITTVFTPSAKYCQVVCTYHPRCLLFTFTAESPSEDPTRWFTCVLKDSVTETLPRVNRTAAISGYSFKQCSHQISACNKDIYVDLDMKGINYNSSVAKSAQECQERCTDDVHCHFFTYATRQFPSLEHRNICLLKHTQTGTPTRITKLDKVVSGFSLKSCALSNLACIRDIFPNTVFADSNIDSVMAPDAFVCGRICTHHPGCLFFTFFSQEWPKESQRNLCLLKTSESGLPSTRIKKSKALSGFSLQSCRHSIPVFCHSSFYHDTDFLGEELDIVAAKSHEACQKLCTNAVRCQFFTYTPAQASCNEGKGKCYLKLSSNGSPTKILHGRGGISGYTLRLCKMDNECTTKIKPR
Values of Ki were determined by allowing the protease to react with the substrate in the presence of the inhibitor. Reactions were allowed to go for periods of 20-180 minutes (depending on the protease) and the velocities (rate of absorbance or fluorescence change versus time) were measured. The following relationships were used to calculate Ki values: (vo−vs)/vs=I/(Ki(1+S/Km)) for a competitive inhibitor with one binding site; or vs/vo=A+((B−A)/1+((IC50/(I)n))); and Ki=IC50/(1+S/Km) for a competitive inhibitor where: […]
On to `NC(=O)c1ccc(-c2nccc3c2CCN(C(=O)/C=C/c2c(-n4cnnn4)ccc(Cl)c2F)C3C(=O)Nc2ccc3cn[nH]c3c2)cc1` (centres unmarked) [Example 23, (E)-5-(4-Carbamoylphenyl)-2-(3-(3-chloro-2-fluoro-6-(1H-tetrazol-1-yl)phenyl)acryloyl)-N-(1H-indazol-6-yl)-1,2,3,4-tetrahydro-2,6-naphthyridine-1-carboxamide, TFA salt], for which the pKi is more than 8.30.
In turn, `O=C(O)c1ccc(NC(=O)C2c3ccnc(N4CCOCC4)c3CCN2C(=O)/C=C/c2c(-n3cnnn3)ccc(Cl)c2F)cc1` (centres unmarked) [Example 28, (E)-4-(2-(3-(3-Chloro-2-fluoro-6-(1H-tetrazol-1-yl)phenyl)acryloyl)-5-morpholino-1,2,3,4-tetrahydro-2,6-naphthyridine-1-carboxamido)benzoic acid, TFA Salt] showed a pKi of more than 8.30.
The result for `O=C(Nc1ccc(C2CCCN2)cc1)[C@@H]1c2ccccc2CCN1C(=O)/C=C/c1cc(Cl)ccc1-n1cnnn1` (stereo partly drawn) [Example 40, (1S)-2-((E)-3-(5-Chloro-2-(1H-tetrazol-1-yl)phenyl)acryloyl)-N-(4-(pyrrolidin-2-yl)phenyl)-1,2,3,4-tetrahydroisoquinoline-1-carboxamide, TFA salt] reads 5.17.
In the case of `O=C(O)c1ccc(NC(=O)[C@@H]2c3ccccc3CCN2C(=O)C#Cc2cc(Cl)ccc2-n2cnnn2)cc1` [Example 48, (S)-4-(2-(3-(5-Chloro-2-(1H-tetrazol-1-yl)phenyl)propioloyl)-1,2,3,4-tetrahydroisoquinoline-1-carboxamido)benzoic acid] it was 8.15; in that of `CC1(C)CN(C(=O)/C=C/c2cc(Cl)ccc2-n2cnnn2)C(C(=O)Nc2ccc(C(=O)O)cc2)c2c(Br)cccc21` (centres unmarked) [Example 55, (E)-4-(8-bromo-2-(3-(5-chloro-2-(1H-tetrazol-1-yl)phenyl)acryloyl)-4,4-dimethyl-1,2,3,4-tetrahydroisoquinoline-1-carboxamido)benzoic acid], 6.77; in that of `CCc1nn(C)c2c1C(C(=O)Nc1ccc(C(=O)O)cc1)N(C(=O)/C=C/c1cc(Cl)ccc1-n1cnnn1)CC2` (centres unmarked) [Example 65, (E)-4-(5-(3-(5-Chloro-2-(1H-tetrazol-1-yl)phenyl)acryloyl)-3-ethyl-1-methyl-4,5,6,7-tetrahydro-1H-pyrazolo[4,3-c]pyridine-4-carboxamido)benzoic acid, TFA salt], 7.63.
Molecule `Cc1[nH]nc2c1C(C(=O)Nc1ccc(C(=O)OC(C)(C)C)cc1)N(C(=O)/C=C/c1c(-n3cnnn3)ccc(Cl)c1F)CC2` (centres unmarked) [Example 76, (E)-tert-butyl 4-(5-(3-(3-chloro-2-fluoro-6-(1H-tetrazol-1-yl)phenyl)acryloyl)-3-methyl-4,5,6,7-tetrahydro-2H-pyrazolo[4,3-c]pyridine-4-carboxamido)benzoate, TFA salt] had a pKi of 6.25.
For `Cc1[nH]nc2c1C(C(=O)Nc1ccc(C(=O)O)cc1)N(C(=O)/C=C/c1c(-n3cnnn3)ccc(Cl)c1F)CC2` (centres unmarked) [Example 77, (E)-4-(5-(3-(3-chloro-2-fluoro-6-(1H-tetrazol-1-yl)phenyl)acryloyl)-3-methyl-4,5,6,7-tetrahydro-2H-pyrazolo[4,3-c]pyridine-4-carboxamido)benzoic acid, TFA salt], the pKi was 8.30.
